This note sets out measurements from article PMC9179341, “Design of New Potent and Selective Thiophene-Based KV1.3 Inhibitors and Their Potential for Anticancer Activity” (Cancers, 2022).

Common to all, as to assay type: cell-based
One test has as its target T1, KV2.1 (Homo sapiens, UniProt Q14721).
T1 sequence (Q14721 1-858): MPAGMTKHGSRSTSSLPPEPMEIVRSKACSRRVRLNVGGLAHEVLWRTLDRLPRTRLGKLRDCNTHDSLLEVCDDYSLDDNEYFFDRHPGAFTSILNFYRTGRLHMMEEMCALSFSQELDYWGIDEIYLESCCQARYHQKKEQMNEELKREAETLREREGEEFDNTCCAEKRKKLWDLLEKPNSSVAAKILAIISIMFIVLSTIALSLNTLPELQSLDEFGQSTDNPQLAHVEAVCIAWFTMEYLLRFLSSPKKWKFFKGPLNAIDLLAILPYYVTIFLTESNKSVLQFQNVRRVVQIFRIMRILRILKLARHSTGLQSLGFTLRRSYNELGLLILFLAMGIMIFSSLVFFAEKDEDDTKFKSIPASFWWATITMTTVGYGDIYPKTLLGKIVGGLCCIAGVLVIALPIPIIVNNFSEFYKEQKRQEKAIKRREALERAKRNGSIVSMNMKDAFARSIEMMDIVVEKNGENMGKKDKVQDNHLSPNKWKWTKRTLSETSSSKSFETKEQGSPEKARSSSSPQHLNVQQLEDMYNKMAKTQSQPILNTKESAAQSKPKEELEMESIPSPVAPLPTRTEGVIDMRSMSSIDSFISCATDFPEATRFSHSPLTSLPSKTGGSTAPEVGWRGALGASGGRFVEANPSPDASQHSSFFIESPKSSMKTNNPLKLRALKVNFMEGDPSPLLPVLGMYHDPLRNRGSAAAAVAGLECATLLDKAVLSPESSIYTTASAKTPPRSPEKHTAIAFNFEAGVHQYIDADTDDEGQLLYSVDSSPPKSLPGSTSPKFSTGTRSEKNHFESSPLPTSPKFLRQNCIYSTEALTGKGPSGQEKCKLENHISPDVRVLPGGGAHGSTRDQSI
Briefly: Selectivity, HiClamp Xenopus laevis heterologous expression system, KV2.1. The protocol:
(§1) Ion channels (Kv1.x, Kv2.1, Kv4.2, Kv10.1) were expressed in Xenopus laevis oocytes by linearization of the plasmids and subsequent in vitro transcription using a commercial T7 or SP6 mMESSAGE mMACHINE transcription kit (Ambion, Carlsbad, California, USA). Defolliculated Xenopus oocytes were then injected with 20–50 nL of the cRNA at a concentration of 1 ng/nL using a micro-injector (Drummond Scientific1, Broomall, PA, USA). The oocytes were incubated in a solution containing (in mM): NaCl, 96; KCl, 2; CaCl2, 1.8; MgCl2, 2 and HEPES, 5 (pH 7.5), supplemented with 50 mg/L gentamycin sulfate and 90 mg/L theophylline. After ex vivo translation, the ion channels were correctly inserted in the cell membrane of the oocytes.
(§2) Two-electrode voltage-clamp recordings were performed at room temperature (18–22 °C) using a Geneclamp 500 amplifier (Molecular Devices, San Jose, CA, USA) and pClamp data acquisition (Axon Instruments, Union City, CA, USA) and using an integrated digital TEVC amplifier controlled by HiClamp, an automated Voltage-Clamp Screening System (Multi Channel Systems MCS GmbH, Reutlingen, Germany). Whole-cell currents from oocytes were recorded 1–4 days after injection. The bath solution composition was ND96 (in mM): NaCl, 96; KCl, 2; CaCl2, 1.8; MgCl2, 2 and HEPES, 5 (pH 7.5). Voltage and current electrodes were filled with a 3 M solution of KCl in H2O. […]
(§3) For the electrophysiological analysis of the compounds, a number of protocols were applied from a holding potential of −90 mV. […] The concentration dependency of all compounds was assessed by measuring the current inhibition in the presence of increasing compound concentrations. […]
(§4) All electrophysiological data (Figure S1) are presented as means ± S.E.M of n ≥ three independent experiments unless otherwise indicated. All data were analyzed using pClamp Clampfit 10.4 (Molecular Devices, Downingtown, PA, USA), OriginPro 9 (Originlab, Northampton, MA, USA), GraphPad Prism 8 software (GraphPad Software, Inc., San Diego, CA, USA) and DataMining (Multi Channel Systems MCS GmbH, Reutlingen, Germany). […]

A further test has as its target KV4.2 (Homo sapiens, UniProt Q9NZV8). Briefly: Selectivity, HiClamp Xenopus laevis heterologous expression system, KV4.2. The conditions noted are these: oocytes, NA = no significant inhibition, no IC50 determined. As to the method: as §1, with “After ex vivo translation, the ion channels were correctly inserted in the cell membrane of the oocytes.” left out
(§5) Two-electrode voltage-clamp recordings were performed at room temperature (18–22 °C) using a Geneclamp 500 amplifier (Molecular Devices, San Jose, CA, USA) and pClamp data acquisition (Axon Instruments, Union City, CA, USA) and using an integrated digital TEVC amplifier controlled by HiClamp, an automated Voltage-Clamp Screening System (Multi Channel Systems MCS GmbH, Reutlingen, Germany). Whole-cell currents from oocytes were recorded 1–4 days after injection. […]
as §3

The target of another test is KV10.1 (Homo sapiens, UniProt O95259). Briefly: Selectivity, HiClamp Xenopus laevis heterologous expression system, KV10.1. The conditions noted are these: at a concentration of the compound's IC50 value for KV1.3. As to the method:
as §1, with “After ex vivo translation, the ion channels were correctly inserted in the cell membrane of the oocytes.” left out
as §5, §3

Another test concerns the target KV1.4 (Homo sapiens, UniProt P22459). Briefly: Selectivity, HiClamp Xenopus laevis heterologous expression system, KV1.4. The protocol: as §1, §2, §3, §4
Setting [1] is: HiClamp, oocytes, NA = no significant inhibition, no IC50 determined.
Where [2] appears, read: at a concentration of the compound's IC50 value for KV1.3.

By IC50 is commonly meant the concentration needed to halve the response being measured. The low end stands for greater potency in that assay, the high end for weaker potency in that assay.

Chain of KV1.4 (P22459 whole entry): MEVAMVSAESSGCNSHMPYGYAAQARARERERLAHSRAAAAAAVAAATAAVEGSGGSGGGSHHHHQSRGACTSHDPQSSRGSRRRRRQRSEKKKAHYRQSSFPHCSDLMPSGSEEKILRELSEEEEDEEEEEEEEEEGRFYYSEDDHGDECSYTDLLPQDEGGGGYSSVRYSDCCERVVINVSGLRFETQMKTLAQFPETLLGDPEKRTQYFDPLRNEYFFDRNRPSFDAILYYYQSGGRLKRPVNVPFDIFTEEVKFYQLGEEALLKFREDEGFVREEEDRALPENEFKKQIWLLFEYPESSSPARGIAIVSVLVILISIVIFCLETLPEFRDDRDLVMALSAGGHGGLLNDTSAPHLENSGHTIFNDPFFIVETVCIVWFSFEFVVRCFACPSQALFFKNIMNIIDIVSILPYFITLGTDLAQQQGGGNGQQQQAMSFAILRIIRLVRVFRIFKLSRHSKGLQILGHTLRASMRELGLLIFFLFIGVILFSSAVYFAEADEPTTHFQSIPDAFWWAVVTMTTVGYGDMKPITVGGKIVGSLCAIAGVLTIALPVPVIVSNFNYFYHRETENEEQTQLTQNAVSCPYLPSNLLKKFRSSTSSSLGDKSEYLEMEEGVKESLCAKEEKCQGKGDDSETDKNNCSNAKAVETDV
Chain of KV10.1 (O95259 whole entry): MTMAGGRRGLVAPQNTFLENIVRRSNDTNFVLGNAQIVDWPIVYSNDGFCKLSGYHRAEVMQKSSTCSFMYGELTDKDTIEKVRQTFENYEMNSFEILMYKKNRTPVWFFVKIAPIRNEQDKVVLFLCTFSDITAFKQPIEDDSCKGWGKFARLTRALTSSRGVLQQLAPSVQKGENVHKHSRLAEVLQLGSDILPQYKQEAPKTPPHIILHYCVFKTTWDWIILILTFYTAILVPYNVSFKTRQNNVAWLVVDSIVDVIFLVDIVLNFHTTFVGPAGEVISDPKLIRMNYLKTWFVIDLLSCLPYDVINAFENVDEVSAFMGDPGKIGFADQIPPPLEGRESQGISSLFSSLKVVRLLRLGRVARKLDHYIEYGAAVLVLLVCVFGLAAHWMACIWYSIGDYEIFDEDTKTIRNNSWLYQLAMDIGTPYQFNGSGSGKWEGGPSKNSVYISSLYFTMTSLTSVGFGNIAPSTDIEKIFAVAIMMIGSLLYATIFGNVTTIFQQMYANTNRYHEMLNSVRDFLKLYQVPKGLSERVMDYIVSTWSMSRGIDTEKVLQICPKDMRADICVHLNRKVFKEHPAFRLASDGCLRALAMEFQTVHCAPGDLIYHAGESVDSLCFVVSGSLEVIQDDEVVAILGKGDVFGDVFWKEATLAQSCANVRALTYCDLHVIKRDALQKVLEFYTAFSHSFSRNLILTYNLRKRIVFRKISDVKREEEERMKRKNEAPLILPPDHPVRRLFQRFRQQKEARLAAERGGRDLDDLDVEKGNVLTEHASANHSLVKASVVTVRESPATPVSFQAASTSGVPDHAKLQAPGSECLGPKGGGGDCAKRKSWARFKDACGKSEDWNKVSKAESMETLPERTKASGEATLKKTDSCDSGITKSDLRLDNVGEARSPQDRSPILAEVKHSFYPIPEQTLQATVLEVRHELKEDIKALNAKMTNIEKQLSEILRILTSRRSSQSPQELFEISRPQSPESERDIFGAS
Chain of KV4.2 (Q9NZV8 whole entry): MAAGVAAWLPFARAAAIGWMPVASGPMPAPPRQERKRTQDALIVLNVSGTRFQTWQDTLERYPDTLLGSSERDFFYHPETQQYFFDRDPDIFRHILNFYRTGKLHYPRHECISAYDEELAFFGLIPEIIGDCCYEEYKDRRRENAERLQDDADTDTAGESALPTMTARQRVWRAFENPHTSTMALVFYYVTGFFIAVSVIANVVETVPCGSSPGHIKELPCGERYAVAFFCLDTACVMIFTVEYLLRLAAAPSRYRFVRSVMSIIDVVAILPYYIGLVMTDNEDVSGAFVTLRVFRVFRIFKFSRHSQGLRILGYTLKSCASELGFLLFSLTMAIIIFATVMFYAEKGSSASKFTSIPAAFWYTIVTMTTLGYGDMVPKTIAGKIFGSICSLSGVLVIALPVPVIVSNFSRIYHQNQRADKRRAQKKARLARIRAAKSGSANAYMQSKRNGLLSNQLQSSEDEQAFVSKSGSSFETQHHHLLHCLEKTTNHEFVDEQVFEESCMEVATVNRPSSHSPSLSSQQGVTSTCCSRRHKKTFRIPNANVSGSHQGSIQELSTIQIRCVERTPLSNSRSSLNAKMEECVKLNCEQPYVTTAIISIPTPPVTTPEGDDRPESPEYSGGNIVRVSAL

For the compound `COc1ccccc1C(=O)NCC1(c2cccs2)CCOC1` (stereo not drawn) [Compound 14], the IC50 against KV2.1 (setting [1]) amounted to 6.45 ± 0.42 µM; against KV4.2, 2.41 ± 0.88 µM.
As for `COc1ccccc1C(=O)NCC1(c2ccsc2)CCOCC1` [Compound 44], on KV10.1, the “Effect on KV10.1 channel” value is recorded as “no significant effects”. Besides, on KV2.1 (setting [2]), the “Effect on KV2.1 channel” value was “no significant effects”. The same compound had an IC50 against KV1.4 (setting [1]) of 8.48 ± 2.21 µM. The “inhibition of KV1.4” value on KV1.4 (setting [2]) is listed as approximately 16%.
